In patent US20250281378A1, “PEPTIDE HAVING ACTIVITY OF PREVENTING HAIR LOSS OR PROMOTING HAIR GROWTH AND USE THEREOF” (CAREGEN CO., LTD., priority 2021, published 2025):

Assays:
p-AKT = assay: Western blotting of phosphorylated AKT in HHFDPC; type: cell-based, human; settings: peptide 500 nM, 5 μM, and 50 μM, 24 hours, vs control group not treated, FIG. 2
Experimental: (§1) First, phosphorylated forms of AKT and ERK, which act as signaling molecules related to the proliferation of HHFDPC, were confirmed through Western blotting. Specifically, HHFDPC as in [Experiment Example 1-1] above was seeded at 4×10^5 cells/well in a 6-well culture plate, cultured in MSC complete medium (mesenchymal stem cell complete media) for 24 hours, and then the medium was replaced with serum free MSC complete medium and cultured for another 24 hours. Then, the HHFDPC was treated with the peptide of SEQ ID NO: 1 prepared in the Preparation Example at concentrations of 500 nM, 5 μM, and 50 μM, respectively, and cultured at 37° C. for 24 hours. As a positive control, minoxidil was treated at a concentration of 1 μM, and as a negative control, HHFDPC without any treatment was used. Then, Western blotting was performed to detect phosphorylated AKT and phosphorylated ERK. After washing with PBS, the cells were treated with 100 ? of lysis buffer to destroy cells, thereby obtaining cell lysate. After electrophoresis using a 10% SDS-PAGE gel, it was transferred to a PVDF membrane and blocked using 5% skim milk at room temperature for 30 minutes. […] After washing again with 0.1% PBS-T (0.1% Tween-20 in PBS) three times for 15 minutes each, p-AKT and p-ERK were detected by treatment with ECL solution (GE Healthcare, USA).

MSX2 = assay: RT-PCR of MSX2 expression in HHGMC; type: cell-based, human; settings: peptide 500 nM, 5 μM, and 50 μM, 72 hours, vs untreated control group, FIG. 7
Experimental: Specifically, HHGMC (human hair germinal matrix cell, Sciencell, USA) was seeded in a 6-well culture plate at 4×10^5 cells/well and then cultured in MSC complete medium (mesenchymal stem cell complete media) for 24 hours. Next, the medium was replaced with serum free MSC complete medium and cultured again for 24 hours. Then, the HHGMC was treated with the peptide of SEQ ID NO: 1 prepared in the Preparation Example at concentrations of 500 nM, 5 μM, and 50 μM, respectively, and cultured at 37° C. for 72 hours. As a positive control, EGF was treated at a concentration of 50 nM, and as a negative control, HHGMC without any treatment was used. After washing with PBS, RNA was isolated by treating with 300 ? of easy blue (intron, Korea). Next, cDNA was synthesized using a cDNA synthesis kit (enzynomics, Korea) by quantification using nano drop, and PCR was performed using primers for MSX2 (base sequences of the primers are listed in Table 4 below) and PCR premix (enzynomics, Korea). Electrophoresis was performed on a 1.5% agarose gel, and MSX2 mRNA was detected using a band analysis system (Bio-Rad gel image system).

β-catenin = assay: Western blotting of β-catenin moved to the nucleus in HHFDPC; type: cell-based, human; settings: HHFDPC nuclear proteins, peptide 500 nM, 5 µM, and 50 μM, 24 hours, vs control group not treated, FIG. 3
Experimental: In addition, in addition to p-AKT and p-ERK, in order to confirm the activation of β-catenin, which is known to affect cell proliferation and differentiation, whether β-catenin moved into the nucleus was confirmed through Western blotting. Specifically, the HHFDPC as in [Experiment Example 1-1] was seeded in a 6-well culture plate at an amount of 4×10^5 cells/well, cultured in MSC complete medium (mesenchymal stem cell complete media) for 24 hours. Next, the medium was replaced with serum free MSC complete medium and cultured again for 24 hours. Then, the HHFDPC was treated with the peptide of SEQ ID NO: 1 prepared in the Preparation Example at concentrations of 500 nM, […], and 50 μM, respectively, and cultured at 37° C. for 24 hours. As a positive control, minoxidil was treated at a concentration of 1 μM, and as a negative control, HHFDPC without any treatment was used. After washing with PBS, proteins in the nucleus were isolated using a nuclear protein extraction kit (Thermo scientific, USA). After electrophoresis using a 10% SDS-PAGE gel, it was transferred to a PVDF membrane and blocked using 5% skim milk at room temperature for 30 minutes. […] After washing again with 0.1% PBS-T (0.1% Tween-20 in PBS) three times for 15 minutes each, β-catenin was detected by treatment with ECL solution (GE Healthcare, USA).

DKK-1 protein = assay: Western blotting of DKK-1 protein in DHT-treated HHFDPC; type: cell-based, human; settings: HHFDPC with DHT 100 nM, peptide 500 nM, 5 μM, and 50 μM, 24 hours, vs negative control (DHT only), FIG. 5
Experimental: DKK-1 protein (dickkopf-related protein 1) is a hair loss-related protein known to be highly expressed in individuals with hair loss, especially male pattern hair loss, and its expression is known to be promoted by hormones such as DHT (Dihydrotestosterone). Accordingly, the expression of DKK-1 protein was induced by treating HHFDPC cells with DHT together with the peptide according to the Preparation Example of the present invention, and then the expression level of DKK-1 was measured through Western blotting to determine whether there was an effect of suppressing the expression of DKK-1 protein.
Specifically, as in [Experiment Example 1-1] above, HHFDPC was seeded in a 6-well culture plate at 4×10^5 cells/well and then cultured in MSC complete medium (mesenchymal stem cell complete media) for 24 hours. Next, the medium was replaced with serum free MSC complete medium and cultured again for 24 hours. […] After washing again with 0.1% PBS-T (0.1% Tween-20 in PBS) three times for 15 minutes each, DKK-1 protein was detected by treatment with ECL solution (GE Healthcare, USA).

Keratin 19 = assay: RT-PCR of Keratin 19 expression in HHORSC; type: cell-based, human; settings: peptide 500 nM, 5 μM, and 50 μM, 72 hours, vs control group without treatment, FIG. 6
Experimental: (§2) Specifically, HHORSC (human hair outer root sheath cell, Sciencell, USA) was seeded in a 6-well culture plate at 4×10^5 cells/well and then cultured in MSC complete medium (mesenchymal stem cell complete media) for 24 hours. Next, the medium was replaced with serum free MSC complete medium and cultured again for 24 hours. Then, the HHORSC was treated with the peptide of Preparation Example consisting of amino acid sequence of SEQ ID NO: 1 at concentrations of 500 nM, 5 μM, and 50 μM, respectively, and cultured at 37° C. for 72 hours. As a positive control, EGF was treated at a concentration of 50 nM, and as a negative control, HHORSC without any treatment was used. After washing with PBS, RNA was isolated by treating with 300 ? of easy blue (intron, Korea). Then, CDNA was synthesized using a cDNA synthesis kit (enzynomics, Korea) by quantification using nano drop, and PCR was performed using primers for Keratin 14 and Keratin 19 (base sequences of each primer are listed in Table 3 below) and PCR premix (enzynomics, Korea). Electrophoresis was performed on a 1.5% agarose gel, and the mRNAs of Keratin 14 and Keratin 19 were detected using a band analysis system (Bio-Rad gel image system).

c-Myc = assay: RT-PCR of c-Myc expression in HHFDPC; type: cell-based, human; settings: peptide 500 nM, 5 μM, and 50 µM, 24 hours, vs control group without any treatment, FIG. 4
Experimental: (§3) Furthermore, in order to determine whether the β-catenin moves to the nucleus and is activated to affect proliferation and differentiation, whether the expression of LEF-1, c-Myc and cyclin D1 (cyclin D1), which act as downstream factors, increases with β-catenin activation was confirmed through RT-PCR. Specifically, in the same manner as the previous Western blotting experiment, HHFDPC cells were cultured, treated with the peptides prepared in the Preparation Example of the present invention at concentrations of 500 nM, 5 μM, and 50 µM, respectively, and cultured at 37° C. for 24 hours. After washing the cells with PBS, RNA was isolated by treating them with 300 […] of easy blue (intron, Korea). Then, CDNA was synthesized using a cDNA synthesis kit (enzynomics, Korea) by quantifying it with nano drop, and PCR was performed using primers for LEF-1, c-Myc and cyclin D1 (sequences of the primers are listed in Table 2 below) and PCR premix (enzynomics, Korea). Electrophoresis was performed on a 1.5% agarose gel, and then the mRNA of LEF-1, c-Myc and cyclin D1 was detected using a band analysis system (Bio-Rad gel image system).

Keratin 14 = assay: RT-PCR of Keratin 14 expression in HHORSC; type: cell-based, human; settings: peptide 500 nM, 5 μM, and 50 μM, 72 hours, vs control group without treatment, FIG. 6
Experimental: as §2

p-ERK = assay: Western blotting of phosphorylated ERK in HHFDPC; type: cell-based, human; settings: peptide 500 nM, 5 μM, and 50 μM, 24 hours, vs control group not treated, FIG. 2
Experimental: as §1

[1] = test system: human hair follicle dermal papilla cells (HHFDPC); assay: Proliferation of dermal papilla cells (MTT, absorbance at 540 nm); type: cell-based; settings: peptide 500 nM, 5 μM, and 50 μM, 72 hours, compared to the untreated control group, FIG. 1
Experimental: While culturing human hair follicle dermal dermal papilla cells (HHFDPC), the absorbance was measured after treatment with the peptide of the present invention to confirm whether there was an effect of promoting the proliferation of the HHFDPC dermal papilla cells.
Specifically, HHFDPC (Sciencell, USA) was seeded at 4×10^3 cells/well in a 96-well culture plate, cultured in MSC complete medium (mesenchymal stem cell complete media, Sciencell, USA) for 24 hours, and then the medium was replaced with serum free MSC complete medium and cultured for another 24 hours. Then, the HHFDPC was treated with the peptide of SEQ ID NO: 1 prepared in the Preparation Example at concentrations of 500 nM, 5 μM, and 50 μM, respectively, and cultured at 37° C. for 72 hours. As a positive control, minoxidil was treated at a concentration of 1 μM, and as a negative control, HHFDPC without any treatment was used. Then, 10 ? of 5 mg/ml MTT solution was added and cultured in a 37° C. CO2 incubator for 4 hours to stain the cells. After removing the medium, the cells were treated with 100 μl of DMSO and shaken for 10 minutes, and the number of HHFDPC cells was confirmed by measuring absorbance at a wavelength of 540 nm using a spectrophotometer.

cyclin D1 = assay: RT-PCR of cyclin D1 expression in HHFDPC; type: cell-based, human; settings: peptide 500 nM, 5 μM, and 50 µM, 24 hours, vs control group without any treatment, FIG. 4
Experimental: as §3

LEF-1 = assay: RT-PCR of LEF-1 expression in HHFDPC; type: cell-based, human; settings: peptide 500 nM, 5 μM, and 50 µM, 24 hours, vs control group without any treatment, FIG. 4
Experimental: as §3

Sequence: KLQEHLDM [peptide of the present invention]
- phosphorylation of AKT (p-AKT) (p-AKT): phosphorylation was found to be increased compared to the control group
- amount of MSX2 mRNA (MSX2): the amount of mRNA increased further compared to the untreated control group
- β-catenin moved to the nucleus (activation of β-catenin) (β-catenin): migration due to activation of β-catenin increased
- amount of DKK-1 protein (DKK-1 protein): the amount of DKK-1 protein was found to be reduced
- amount of Keratin 19 mRNA (Keratin 19): the amount of mRNA increased further compared to the control group
- amount of c-Myc mRNA (c-Myc): the amount of mRNA increased further compared to the control group
- amount of Keratin 14 mRNA (Keratin 14): the amount of mRNA increased further compared to the control group
- phosphorylation of ERK (p-ERK) (p-ERK): phosphorylation was found to be increased compared to the control group
- proliferation of HHFDPC (absorbance, MTT) [1]: proliferation of HHFDPC was promoted depending on the concentration of the treated peptide
- amount of cyclin D1 mRNA (cyclin D1): the amount of mRNA increased further compared to the control group
- amount of LEF-1 mRNA (LEF-1): the amount of mRNA increased further compared to the control group
